The source of these data is PubChem BioAssay (NCI).

Holding throughout (assay): NCI anticancer screen, dose series, 48 h
In test [1] the test system is A498 renal.
For test [2], the system named is A549 NSCLC.
Test [3] has as its system BT-549 breast.
Test [4] concerns COLO 205 colon.
Test [5] deals with HCT-15 colon.
The subject of test [6] is HOP-92 NSCLC.
Test [7] relates to M14 melanoma.
The subject of test [8] is MDA-MB-231 breast.
For test [9], the system named is NCI-H522 lung.
Test [10] relates to OVCAR-5 ovarian.
Test [11] deals with RPMI-8226 leukemia.
The subject of test [12] is SF-268 CNS.
In test [13] the test system is SK-MEL-28 melanoma.
Test [14] relates to UACC-257 melanoma.
Test [15] deals with SR leukemia.
Test [16] relates to K-562 leukemia.
Test [17] deals with MDA-N.

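Test compounds were applied to cells in 96-well plates for 48 hours at 5 doses. GI50 is the concentration that inhibits growth by half. TGI denotes the concentration required for complete inhibition of growth.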 Bounds are passed on as bounds.

With `COc1cc(C2=NNC(=O)c3ccccc3N2c2nc(-c3cccs3)nc3ccc(Br)cc23)cc(OC)c1OC`, the TGI in [1] is 91.9 µM; in test [2], > 100 µM; in test [3] it was > 100 µM; in test [4] it was > 100 µM; in [5], 24 µM; in test [6] it was 27.7 µM. Also, the TGI in test [7] was 73.8 µM; in [8], > 100 µM; in [9], > 100 µM; in test [10], > 100 µM; in [11], 12.9 µM; in test [12] it was 58.4 µM. In addition, the TGI was 32.3 µM in test [13] and > 100 µM in test [14].
Consider `CCC/C=C1\CCC(CN(C)C)C1=O` (stereo not drawn), for which the TGI is 23.9 µM in test [1]; > 62.2 µM in test [2]; 10.7 µM in test [4]; 6.68 µM in [5]; 6.8 µM in [6]; 16.1 µM in test [7]. Further, the TGI in [9] amounted to 3.87 µM; in test [10], 35.6 µM; in test [11], 2.75 µM; in [12] it was 19.8 µM; in test [13] it was 14.9 µM; in [15], 8.98 µM. For the same compound, in test [14], the TGI amounted to 30.8 µM.
As to `Cc1c(CCO)c(=O)n2c([nH]c3ccccc32)c1C#N`, the TGI in [1], in test [2], in test [4], in test [5], in test [6] and in [16] was > 100 µM throughout. The TGI in [7], in test [9], in test [10], in test [11], in [12] and in test [13] was > 100 µM each time. Also, the TGI in [14] is > 100 µM.
Regarding `O=C(NC1CCCCC1)c1cc2ccccc2cc1O`, the TGI in [1] is 78.3 µM; in test [4] it was > 100 µM; in test [5], 65.1 µM; in test [6], 65.1 µM; in test [16], 55.9 µM; in [7], 53.3 µM. Besides, the TGI in [8] was > 100 µM; in test [11] it was 46.6 µM; in [12] it was > 100 µM; in test [13], > 100 µM; in [15], 87.2 µM; in [14], > 100 µM.
With `CCOP(=O)(OCC)C(c1ccccc1)N(C(=O)NC(F)(F)F)c1cccc(F)c1` (stereo not drawn), the TGI in [2], in test [4], in test [5], in [16], in test [7] and in test [8] was > 100 µM in each case. Further, the TGI in [17], in test [9], in [11], in [12], in [13] and in [15] was > 100 µM throughout. Also, the TGI in [14] was > 100 µM.
Take `O=C1c2ccccc2C(=O)c2c(O)c(NCCCNCCO)cc(O)c21`: the TGI in test [1] came out at 33.1 µM; in test [2], 23.7 µM; in test [4], 20.8 µM; in test [5], 24.6 µM; in test [6] it was 31.7 µM; in test [16], 3.5 µM. Besides, the TGI in test [7] was determined as 36.6 µM; in [10] it was 24.6 µM; in test [11] it was 25.5 µM; in test [12], 23.1 µM; in test [13], 30.4 µM.
As for `Cc1nc2c(o1)C(=Nc1ccccc1)c1ccccc1C2=O`, the TGI is 54.4 µM in [1]; 38.3 µM in [2]; 29.7 µM in [4]; 22.6 µM in test [5]; 25.9 µM in test [6]; > 100 µM in test [16]. The TGI worked out at 21.4 µM in [7]; 15.8 µM in test [9]; 32.4 µM in [10]; 38.1 µM in test [11]; 24 µM in test [12]; 19.5 µM in test [14].
Consider `O=c1[nH]c(=O)n(C2CC(O)C(CO)O2)cc1NN=NCCCc1ccccc1` (stereo not drawn), for which the TGI in [1], in test [2], in test [4], in test [5], in [6] and in test [7] was > 100 µM in each case. The TGI in test [8], in test [17], in test [10], in [12], in test [13] and in test [15] was > 100 µM each time. The TGI in [14] is > 100 µM.
As to `COC(=O)[C@H]1NC(=O)CCSSC1(C)C`, the TGI in test [1], in [2], in [3], in test [4], in test [5] and in [6] was > 100 µM each time. In addition, the TGI in [16], in [7], in [8], in test [9], in test [10] and in test [11] was > 100 µM in each case. For the same compound, the TGI in test [12], in test [13] and in test [14] was > 100 µM each time.
Regarding `C(/Cc1ccc2c(c1)OCO2)=N\NC1=NCCN1`, the TGI is 70.5 µM in test [1]; > 100 µM in [2]; > 100 µM in test [3]; > 100 µM in test [4]; > 100 µM in [5]; > 100 µM in test [6]. The TGI in test [16], in test [7], in [8], in [9], in test [10] and in test [11] was > 100 µM in each case. For the same compound, the TGI in test [12], in test [13], in test [15] and in test [14] was > 100 µM in each case.
`CC1(C)O[C@@H](CCl)C[C@H](C#N)O1`: the TGI in test [1], in test [2], in [4], in test [5], in [6] and in test [16] was > 100 µM throughout. In addition, the TGI in [7], in [9], in test [10], in test [11], in test [12] and in test [13] was > 100 µM each time. For the same compound, the TGI in test [15] and in test [14] was > 100 µM each time.
For the compound `COc1ccc2c(c1)C/C(=C\c1cccc3ccccc13)C2=O`, the TGI in test [1], in test [2], in test [3], in test [5], in test [16] and in [7] was > 100 µM in each case. Besides, the TGI in test [10], in test [11], in test [12], in test [13] and in [15] was > 100 µM in each case.
As for `CCCC(C)n1c(C)nc2c1C(=O)c1ccccc1C2=O` (stereo not drawn), the TGI is > 100 µM in [2]; > 100 µM in test [4]; > 100 µM in [5]; 66.8 µM in test [6]; > 100 µM in test [16]; 93.7 µM in test [7]. Moreover, the TGI in [9] is 97 µM; in test [12], > 100 µM; in test [13], > 100 µM; in test [15], > 100 µM; in test [14], 63.1 µM.
As to `CCOC(=O)C[n+]1cccc(C2(c3cc4ccccc4[nH]3)OCCO2)c1`, the TGI in test [1], in test [2], in test [3], in [4], in test [5] and in test [6] was > 100 µM in each case. For the same compound, the TGI in test [16], in [7], in test [8], in test [10], in test [11] and in [12] was > 100 µM each time. For the same compound, the TGI in test [13], in test [15] and in [14] was > 100 µM in each case.
Consider `COc1cc(CNc2cnc3cc(N)ccc3n2)cc(OC)c1OC`, for which the TGI in [1] is > 100 µM; in test [2] it was > 100 µM; in [4] it was 62.2 µM; in test [5], > 100 µM; in [6] it was > 100 µM; in test [16], > 100 µM. Further, the TGI is 74.3 µM in test [7]; 74.5 µM in [9]; > 100 µM in [10]; > 100 µM in test [12]; > 100 µM in test [13]; > 100 µM in test [15]. In addition, in test [14], the TGI was > 100 µM.
`CCOC(=O)c1c(Br)c(-c2ccc(OC)cc2)c(Br)n1C`: the TGI is 49.6 µM in test [1]; 82.3 µM in [2]; > 100 µM in [3]; > 100 µM in test [4]; 64.2 µM in [5]; 14.1 µM in test [6]. Besides, the TGI in test [16] is 38.3 µM; in test [7] it was > 100 µM; in test [8], > 100 µM; in test [9], 83.9 µM; in [10] it was > 100 µM; in test [11], > 100 µM. The TGI is > 100 µM in test [12], > 100 µM in [13], 78.3 µM in test [15] and 95.8 µM in test [14]. Further, the GI50 is 0.0721 µM in [6], 4.04 µM in test [16] and 13.3 µM in [15].
Regarding `COP(=O)(OC)C(NC(=O)C(F)(F)F)(c1ccccc1)C(F)(F)F` (stereo not drawn), the TGI in [1], in test [2], in test [4], in [5], in [6] and in test [16] was > 100 µM each time. In addition, the TGI in [7], in test [9], in [10], in test [11], in test [12] and in test [13] was > 100 µM in each case. Moreover, the TGI in test [15] and in test [14] was > 100 µM in each case.
Take `CCOC(=O)C(CC(C)C)NC(=O)CSc1nnc(COc2ccc(Cl)cc2)n1-c1ccccc1` (stereo not drawn): the TGI in [1] amounted to 28.2 µM; in test [2], 45.9 µM; in [3] it was 32.1 µM; in test [4] it was 36.2 µM; in test [5] it was 37.1 µM; in [6], 39.8 µM. Further, the TGI is > 100 µM in test [16]; 31.9 µM in [7]; 30.6 µM in test [8]; 39.4 µM in test [10]; 54.5 µM in test [11]; 35.6 µM in [12]. Also, the TGI in test [13] stood at 33.1 µM; in test [15], 15.6 µM; in test [14] it was 23.2 µM.
With `O=C1Nc2ccccc2Cn2c1cc1oc(-c3ccccc3)cc12`, the TGI in [1] was > 100 µM; in test [2], > 100 µM; in test [4], > 100 µM; in test [5], > 100 µM; in [6], 73.7 µM; in test [16] it was > 100 µM. The TGI in test [8] was 87.2 µM; in [17], > 100 µM; in test [9], > 100 µM; in [10], > 100 µM; in [12] it was 72.3 µM; in [13] it was > 100 µM. In addition, the TGI in test [15] and in test [14] was > 100 µM throughout.
Take `CSCCCS/C1=C/CCCCCCCCCC1`: the TGI in test [1], in [2], in test [4], in test [5], in test [6] and in test [16] was > 100 µM throughout. Moreover, the TGI in [7], in test [8], in [17], in test [10], in [11] and in test [12] was > 100 µM in each case. Moreover, the TGI in test [13], in test [15] and in test [14] was > 100 µM throughout.
